Results from patent publication US9556098B2, “Reduced coenzyme Q10 crystal having excellent stability” (KANEKA CORPORATION, priority 2011, dated 2017).

How the values were obtained:
Assay type in all cases: physicochemical
[1] = Solubility of the crystal in hexane; conditions: n-hexane, temperature of 25° C.
Protocol: (§1) The inside of a 300 mL reaction flask (made of heat resistant glass) was replaced with nitrogen, and thereafter 40 g of commercially available reduced coenzyme Q10 (produced by Kaneka Corporation, conventionally known reduced coenzyme Q10 crystal) and 60 g of n-hexane were charged thereto and warmed to 40° C. with stirring to completely dissolve the reduced coenzyme Q10 in n-hexane. The solution was cooled to 25° C. at a cooling rate of 10° C./hour, then kept at 25° C. for 96 hours while being continuously stirred, and subjected to filtration and drying (drying under reduced pressure, 20 to 40° C.) to provide a crystal. From the result of analysis by DSC, the crystal was confirmed to have an endothermic peak indicating melting at 54.2° C. during temperature rise at a rate of 5° C./min, and an endothermic peak indicating melting at 51.6° C. during temperature rise at a rate of 1° C./min. In addition, as the result of analysis by powder X-ray diffraction, characteristic peaks at diffraction angles (2θ±0.2°) of 11.50°, 18.26°, 19.30°, 22.30°, 23.00° and 33.14° were observed as shown in FIG. 1. […] From the above analysis results, it was confirmed that the reduced coenzyme Q10 crystal obtained in the present Example was in a different crystal form from the conventionally known reduced coenzyme Q10 crystal. The solubility of the resulting crystal in hexane was measured, and found to be 9% by weight at a temperature of 25° C.

[2] = Sticking property due to electrostatic charge during pulverization by a mortar; conditions: collection by stainless spatula
Protocol: as §1, with “The solubility of the resulting crystal in hexane was measured, and found to be 9% by weight at a temperature of 25° C.” left out

[3] = Solubility of the crystal in ethanol; conditions: temperature of 30° C.

Compound | solubility in hexane [1] [% by weight] | sticking property due to electrostatic charge [2] | solubility in ethanol [3]
COc1c(O)c(C)c(C/C=C(\C)CC/C=C(\C)CC/C=C(\C)CC/C=C(\C)CC/C=C(\C)CC/C=C(\C)CC/C=C(\C)CC/C=C(\C)CC/C=C(\C)CCC=C(C)C)c(O)c1OC [Comparative Example 1, reduced coenzyme Q10] | 36.5 | exhibited remarkable sticking property | –
COc1c(O)c(C)c(C/C=C(\C)CC/C=C(\C)CC/C=C(\C)CC/C=C(\C)CC/C=C(\C)CC/C=C(\C)CC/C=C(\C)CC/C=C(\C)CC/C=C(\C)CCC=C(C)C)c(O)c1OC [Example 1, reduced coenzyme Q10] | 9 | did not exhibit sticking property | –
COc1c(O)c(C)c(C/C=C(\C)CC/C=C(\C)CC/C=C(\C)CC/C=C(\C)CC/C=C(\C)CC/C=C(\C)CC/C=C(\C)CC/C=C(\C)CC/C=C(\C)CCC=C(C)C)c(O)c1OC [conventionally known reduced coenzyme Q10 crystal] | ≥ 30 | – | ≥ 4 % by weight
COc1c(O)c(C)c(C/C=C(\C)CC/C=C(\C)CC/C=C(\C)CC/C=C(\C)CC/C=C(\C)CC/C=C(\C)CC/C=C(\C)CC/C=C(\C)CC/C=C(\C)CCC=C(C)C)c(O)c1OC [reduced coenzyme Q10 crystal of the present invention] | ≤ 15 | – | less than 4 % by weight
